Assay results taken from the CheMixHub drug solubility set.

Experiment: xn = mol fraction of the nth substance listed, in the solute-free solvent

Cl.N=C(N)N + CN(C)C=O + CCCO
solubility (g/100 g solution)
Settings | 278.15 K | 283.15 K | 288.15 K | 293.15 K | 298.15 K | 303.15 K | 308.15 K | 313.15 K | 318.15 K | 323.15 K
x2 = 0.08378 | 10.4 | 11.5 | 12.6 | 13.4 | 14.4 | 15.6 | 16.5 | 17.8 | 18.9 | 20.5
x2 = 0.2607 | 20.4 | 21.6 | 22.3 | 23 | 23.9 | 24.8 | 25.6 | 26.3 | 27.2 | 28.1
x2 = 0.4515 | 27.6 | 28.9 | 29.7 | 30.7 | 31.8 | 32.8 | 33.4 | 34.5 | 35.3 | 36.7
x2 = 0.657 | 35.6 | 37.3 | 38.3 | 39.1 | 40.5 | 41.6 | 42.5 | 43.5 | 44.9 | 46.1
x2 = 0.8809 | 43.5 | 45.6 | 46.6 | 47.1 | 48.8 | 49.9 | 50.7 | 52.4 | 53.7 | 54

Nc1ccc(Oc2ccc(N)cc2)cc1 + CN(C)C=O + CCO
solubility (g/100 g solution)
Settings | 293.15 K | 298.15 K | 303.15 K | 308.15 K | 313.15 K | 318.15 K | 323.15 K | 328.15 K | 333.15 K
x2 = 0.06545 | 0.79 | 0.873 | 1.16 | 1.2 | 1.53 | 1.69 | 2.06 | 2.54 | 2.99
x2 = 0.1361 | 1.59 | 1.71 | 2.14 | 2.18 | 2.57 | 2.99 | 3.53 | 4.13 | 4.74
x2 = 0.2127 | 2.76 | 2.98 | 3.46 | 3.65 | 4.23 | 4.88 | 5.56 | 6.41 | 7.1
x2 = 0.2959 | 4.51 | 4.86 | 5.41 | 5.88 | 6.29 | 7.33 | 8.28 | 9.19 | 10.3
x2 = 0.3866 | 6.9 | 7.38 | 7.95 | 8.83 | 9.66 | 10.6 | 11.6 | 12.8 | 14.1
x2 = 0.486 | 9.91 | 10.6 | 11.3 | 12.2 | 13.3 | 14.3 | 15.5 | 16.9 | 18.1
x2 = 0.5952 | 13.6 | 14.3 | 15.1 | 16.1 | 17.2 | 18.5 | 19.6 | 21 | 22.4
x2 = 0.716 | 17.6 | 18.4 | 19.2 | 20.3 | 21.5 | 22.6 | 23.9 | 25.2 | 26.7
x2 = 0.8501 | 21.8 | 22.5 | 23.2 | 24 | 25.6 | 26.7 | 27.9 | 29.2 | 30.6

Cc1[nH]c(=O)c(C#N)cc1-c1ccncc1 + CN(C)C=O + O
solubility (g/100 g solution)
Settings | 278.15 K | 283.15 K | 288.15 K | 293.15 K | 298.15 K | 303.15 K | 308.15 K | 313.15 K | 318.15 K | 323.15 K
x2 = 0.02666 | 0.00219 | 0.00258 | 0.00301 | 0.00349 | 0.00402 | 0.00455 | 0.00511 | 0.00573 | 0.0064 | 0.00714
x2 = 0.05806 | 0.00523 | 0.00608 | 0.00705 | 0.00812 | 0.00928 | 0.0104 | 0.0117 | 0.013 | 0.0144 | 0.016
x2 = 0.09556 | 0.00909 | 0.0105 | 0.0121 | 0.014 | 0.0159 | 0.0179 | 0.02 | 0.0222 | 0.0245 | 0.0271
x2 = 0.1412 | 0.0128 | 0.0148 | 0.0171 | 0.0197 | 0.0224 | 0.0253 | 0.0283 | 0.0314 | 0.0347 | 0.0384
x2 = 0.1978 | 0.0159 | 0.0184 | 0.0208 | 0.0242 | 0.028 | 0.0318 | 0.0357 | 0.0397 | 0.0439 | 0.0488
x2 = 0.27 | 0.0186 | 0.0214 | 0.0246 | 0.029 | 0.0328 | 0.0371 | 0.0419 | 0.047 | 0.0524 | 0.0585
x2 = 0.3652 | 0.0209 | 0.0244 | 0.028 | 0.0328 | 0.0376 | 0.043 | 0.0487 | 0.0547 | 0.0613 | 0.068
x2 = 0.4965 | 0.023 | 0.0268 | 0.0315 | 0.0364 | 0.0416 | 0.0476 | 0.0545 | 0.0615 | 0.0685 | 0.0771
x2 = 0.6893 | 0.0242 | 0.0285 | 0.033 | 0.0391 | 0.0448 | 0.0505 | 0.0577 | 0.0654 | 0.0732 | 0.0835

Cc1c(Br)cccc1C(=O)O + CN(C)C=O + O
solubility (g/100 g solution)
Settings | x2 = 0.039 | x2 = 0.091 | x2 = 0.16 | x2 = 0.259 | x2 = 0.411 | x2 = 0.677
278.15 K | 5.54 | 9.19 | 12.7 | 16.1 | 19.4 | 22.9
283.15 K | 8.07 | 11.1 | 15.1 | 18.9 | 22.7 | 26.7
288.15 K | 6.03 | 11.5 | 16.6 | 21.4 | 26 | 30.7
293.15 K | 9.6 | 15.3 | 20.6 | 25.5 | 30.3 | 35.3
298.15 K | 11.6 | 18.1 | 23.9 | 29.3 | 34.6 | 40.1
303.15 K | 13.8 | 21 | 27.5 | 33.4 | 39.2 | 45.3
308.15 K | 16 | 24.1 | 31.1 | 37.6 | 43.8 | 50.5
313.15 K | 18.6 | 27.5 | 35.2 | 42.1 | 48.7 | 55.9
318.15 K | 21.6 | 31.2 | 39.4 | 46.6 | 53.5 | 61.2
323.15 K | 24.4 | 35 | 43.7 | 51.3 | 58.6 | 66.8
328.15 K | 27.9 | 39 | 48.1 | 55.9 | 63.4 | 72
